Laboratory results: patent US8106055B2, “Substituted amide compounds” (Gruenenthal GmbH, priority 2007, dated 2012)

Key:
human μ opiate receptor = target: T1, human μ opiate receptor (Homo sapiens, UniProt P35372); test: Affinity for the human μ opiate receptor ([3H]-naloxone displacement, CHO-K1 receptor membrane preparation, SPA); format: binding; settings: test concentration of 1 μM
T1 construct: purchased PerkinElmer Life Sciences, Zaventem, Belgium RB-HOM; host or cells: CHO-K1 cells (membrane preparation)
T1 sequence (P35372 whole entry): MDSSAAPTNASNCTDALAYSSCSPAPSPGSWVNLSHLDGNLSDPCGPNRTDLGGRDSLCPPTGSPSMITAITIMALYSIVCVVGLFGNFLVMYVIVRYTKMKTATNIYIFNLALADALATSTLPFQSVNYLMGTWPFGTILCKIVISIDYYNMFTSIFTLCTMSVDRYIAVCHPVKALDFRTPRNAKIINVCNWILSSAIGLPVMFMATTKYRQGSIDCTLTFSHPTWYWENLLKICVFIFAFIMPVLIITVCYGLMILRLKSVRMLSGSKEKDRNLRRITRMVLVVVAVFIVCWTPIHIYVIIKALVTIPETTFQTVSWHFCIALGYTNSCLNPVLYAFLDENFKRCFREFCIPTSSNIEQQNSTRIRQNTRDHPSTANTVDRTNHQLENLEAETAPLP
Procedure, shortened: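 Test compounds, 1 nmol/l [3H]-naloxone and CHO-K1 membranes bearing the human μ opiate receptor are combined with WGA-SPA beads. After 90 minutes at room temperature, plates are centrifuged and radioactivity counted. Specific-binding inhibition at 1 μmol/l is given in percent.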

[1] = target: T2, serotonin (5-HT) reuptake (Rattus norvegicus, UniProt P31652); test: Inhibition of serotonin (5HT) reuptake in synaptosomes from rat brain; format: biochemical; settings: test concentration of 10 μM
T2 construct: synaptosomes are freshly isolated from areas of the rat brain; from tissue; host or cells: rat brain synaptosomes (P2 fraction)
T2 sequence (P31652 whole entry): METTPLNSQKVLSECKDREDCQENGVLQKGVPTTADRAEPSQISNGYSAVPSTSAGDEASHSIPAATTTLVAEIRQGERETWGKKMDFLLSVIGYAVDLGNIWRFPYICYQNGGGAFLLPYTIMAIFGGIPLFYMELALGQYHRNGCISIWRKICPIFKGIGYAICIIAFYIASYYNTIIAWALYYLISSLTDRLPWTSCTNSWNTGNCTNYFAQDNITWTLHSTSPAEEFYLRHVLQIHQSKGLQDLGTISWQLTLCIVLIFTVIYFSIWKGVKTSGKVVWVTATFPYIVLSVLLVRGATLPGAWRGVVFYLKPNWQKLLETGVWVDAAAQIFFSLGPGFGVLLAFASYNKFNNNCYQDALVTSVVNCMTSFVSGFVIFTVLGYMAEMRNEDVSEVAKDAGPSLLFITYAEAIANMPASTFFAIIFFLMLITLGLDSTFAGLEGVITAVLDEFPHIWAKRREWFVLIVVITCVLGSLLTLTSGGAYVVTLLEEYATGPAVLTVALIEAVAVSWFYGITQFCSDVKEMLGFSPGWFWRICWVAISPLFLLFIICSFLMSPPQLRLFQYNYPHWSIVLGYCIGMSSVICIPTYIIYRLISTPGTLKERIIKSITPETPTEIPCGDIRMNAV
Procedure, shortened: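 Compounds screened at 10 μM and reported as percent inhibition of serotonin uptake. Uptake measured in a freshly prepared P2 synaptosomal fraction from rat brain.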

| Compound | μ (binding on the μ opioid receptor, % inhibition) (human μ opiate receptor) [%] | 5-HT (inhibition of reuptake of serotonin, % inhibition) [1] [%] |
| --- | --- | --- |
| CN(C)C(c1cccc(F)c1)C1CCC(CNC(=O)COCCN(C)S(=O)(=O)c2cccc(C(F)(F)F)c2)CC1 (stereo not drawn) [Example 302] | 75 | 92 |
| COc1ccc(S(=O)(=O)N(C)CCOCC(=O)NCCC2CCC(C(c3ccc(Cl)cc3)N(C)C)CC2)cc1OC (stereo not drawn) [Example 339] | 63 | 78 |
| CN(C)C(c1ccc(F)cc1)C1CCC(NC(=O)COCCN(C)S(=O)(=O)c2ccc(F)cc2)CC1 (stereo not drawn) [Example 357] | 57 | 86 |
| CN(C)C(c1cccc(F)c1)C1CCC(CNC(=O)COC2CCCN(S(=O)(=O)c3ccccc3)C2)CC1 (stereo not drawn) [Example 309] | 69 | 94 |
| COc1ccc(S(=O)(=O)N2CCCCC2COCC(=O)NCC2CCC(C(c3ccc(Cl)cc3)N(C)C)CC2)c(OC)c1 (stereo not drawn) [Example 280] | 73 | 78 |
| CN(C)C(c1ccc(F)cc1)C1CCC(CNC(=O)COC2CCCCC2N(C)S(=O)(=O)c2ccc(Cl)c(Cl)c2)CC1 (stereo not drawn) [Example 359] | 60 | 90 |
| CN(C)C(c1cccc(F)c1)C1CCC(CNC(=O)COCCN(Cc2ccccc2)S(=O)(=O)c2ccccc2)CC1 (stereo not drawn) [Example 296] | 64 | 96 |
| CN(C)C(c1cccc(F)c1)C1CCC(CCNC(=O)COCCN2CCN(S(=O)(=O)c3ccccc3)CC2)CC1 (stereo not drawn) [Example 325] | 68 | 96 |
| CN(C)C(c1ccc(F)cc1)C1CCC(CCNC(=O)COCCN(C)S(=O)(=O)c2c(Cl)cccc2Cl)CC1 (stereo not drawn) [Example 285] | 69 | 89 |
| CN(C)C(c1ccc(F)cc1)C1CCC(NC(=O)COCC2CCCN2S(=O)(=O)c2ccc(Cl)c(Cl)c2)CC1 (stereo not drawn) [Example 344] | 64 | 97 |
| CN(C)C(c1ccc(Cl)cc1)C1CCC(CNC(=O)COCCN(C)S(=O)(=O)c2ccc(Cl)cc2)CC1 (stereo not drawn) [Example 284] | 70 | 87 |
| CN(C)C(c1cccc(F)c1)C1CCC(NC(=O)COCCN(C)S(=O)(=O)c2cccc(C(F)(F)F)c2)CC1 (stereo not drawn) [Example 297] | 74 | 86 |
| COc1ccc(S(=O)(=O)N2CCCC2COCC(=O)NCC2CCC(C(c3ccc(Cl)cc3)N(C)C)CC2)cc1 (stereo not drawn) [Example 351] | 63 | 97 |
| CN(C)C(c1ccc(Cl)cc1)C1CCC(CNC(=O)COCCN(C)S(=O)(=O)c2c(Cl)cc(Cl)cc2Cl)CC1 (stereo not drawn) [Example 318] | 65 | 91 |
| CN(C)C(c1ccc(Cl)cc1)C1CCC(CNC(=O)COCCN(Cc2ccccc2)S(=O)(=O)c2ccccc2)CC1 (stereo not drawn) [Example 343] | 62 | 94 |
| COc1cc(C)c(S(=O)(=O)N2CCN(CCOCC(=O)NCCC3CCC(C(c4ccc(Cl)cc4)N(C)C)CC3)CC2)c(C)c1C (stereo not drawn) [Example 320] | 65 | 98 |
| COc1ccc(S(=O)(=O)N(C)CCOCC(=O)NCC2CCC(C(c3cccc(F)c3)N(C)C)CC2)cc1 (stereo not drawn) [Example 340] | 69 | 81 |
| COc1ccc(S(=O)(=O)N2Cc3ccccc3CC2COCC(=O)NCC2CCC(C(c3ccc(F)cc3)N(C)C)CC2)cc1 (stereo not drawn) [Example 288] | 65 | 94 |

| Compound | μ (binding on the μ opioid receptor, % inhibition) (human μ opiate receptor) [%] | 5-HT (inhibition of reuptake of serotonin, % inhibition) [1] [%] |
| --- | --- | --- |
| CN(C)C(c1cccc(F)c1)C1CCC(NC(=O)COC2CCN(S(=O)(=O)c3ccc(Cl)cc3Cl)C2)CC1 (stereo not drawn) [Example 283] | 74 | 91 |
| CCN(CCOCC(=O)NCC1CCC(C(c2ccc(F)cc2)N(C)C)CC1)S(=O)(=O)c1c(C)cc(OC)c(C)c1C (stereo not drawn) [Example 327] | 67 | 90 |
| COc1cc(C)c(S(=O)(=O)N(CCOCC(=O)NCCC2CCC(C(c3cccc(F)c3)N(C)C)CC2)Cc2ccccc2)c(C)c1 (stereo not drawn) [Example 358] | 71 | 92 |
| COc1cc(C)c(S(=O)(=O)N2CCC(CCOCC(=O)NCC3CCC(C(c4cccc(F)c4)N(C)C)CC3)CC2)c(C)c1C (stereo not drawn) [Example 319] | 71 | 87 |
| CN(C)C(c1ccc(Cl)cc1)C1CCC(CNC(=O)COCC2CCCN(S(=O)(=O)c3ccccc3)C2)CC1 (stereo not drawn) [Example 294] | 63 | 88 |
| COc1ccc(S(=O)(=O)N2CCCCC2COCC(=O)NCCC2CCC(C(c3ccc(F)cc3)N(C)C)CC2)cc1 (stereo not drawn) [Example 349] | 66 | 94 |
| CN(C)C(c1cccc(F)c1)C1CCC(CCNC(=O)COCC2CCCN(S(=O)(=O)c3ccccc3)C2)CC1 (stereo not drawn) [Example 295] | 71 | 99 |
| CN(C)C(c1ccc(Cl)cc1)C1CCC(CNC(=O)COC2CCN(S(=O)(=O)c3ccccc3)C2)CC1 (stereo not drawn) [Example 299] | 63 | 103 |
| COc1ccc(S(=O)(=O)N2CCCC2COCC(=O)NCCC2CCC(C(c3ccc(Cl)cc3)N(C)C)CC2)cc1 (stereo not drawn) [Example 346] | 63 | 95 |
| COc1ccc(S(=O)(=O)N2CCCC2COCC(=O)NCC2CCC(C(c3cccc(F)c3)N(C)C)CC2)cc1 (stereo not drawn) [Example 313] | 71 | 93 |
| CN(C)C(c1ccc(Cl)cc1)C1CCC(CCNC(=O)COCCN(C)S(=O)(=O)c2ccc(Cl)cc2)CC1 (stereo not drawn) [Example 347] | 63 | 93 |
| CN(C)C(c1ccc(F)cc1)C1CCC(CCNC(=O)COCC2CCCCN2S(=O)(=O)c2ccc(Cl)c(Cl)c2)CC1 (stereo not drawn) [Example 337] | 64 | 96 |
| CN(C)C(c1cccc(F)c1)C1CCC(NC(=O)COC2CCN(S(=O)(=O)c3ccccc3)CC2)CC1 (stereo not drawn) [Example 335] | 58 | 93 |
| COc1ccc(S(=O)(=O)N(C)CCOCC(=O)NCCC2CCC(C(c3cccc(F)c3)N(C)C)CC2)cc1OC (stereo not drawn) [Example 293] | 75 | 95 |
| COc1cc(C)c(S(=O)(=O)N(C)CCOCC(=O)NCCC2CCC(C(c3ccc(F)cc3)N(C)C)CC2)c(C)c1C (stereo not drawn) [Example 354] | 61 | 90 |
| COc1ccc(S(=O)(=O)N2CCC(OCC(=O)NCCC3CCC(C(c4ccc(Cl)cc4)N(C)C)CC3)C2)cc1OC (stereo not drawn) [Example 338] | 69 | 86 |
| CN(C)C(c1ccc(F)cc1)C1CCC(CNC(=O)COCCN(Cc2ccccc2)S(=O)(=O)c2ccccc2)CC1 (stereo not drawn) [Example 342] | 57 | 94 |
| CN(C)C(c1ccc(Cl)cc1)C1CCC(CCNC(=O)COCCN(C)S(=O)(=O)c2cccc(C(F)(F)F)c2)CC1 (stereo not drawn) [Example 289] | 67 | 94 |
